One series relates to mice. Kind of series: Hot plate test in mice (nociceptive reaction latency). Format: in vivo. The note with it: for Reaction Latency: hot plate 52°C, cutoff 30 seconds, mean ± SEM; for % variation of reaction latency: vs saline; for increase of nociceptive reaction latency vs vehicle-control: 60 mg/kg oral; for increase of nociceptive reaction latency vs vehicle controls: 1.0 mg/kg oral. The method, then:
The compounds of Example 1 (administered as the dihydrochloride salt of a 3:1 mixture of 3-(3-pyridinyl)-6-azabicyclo[3.2.1]oct-2-ene and 3-(3-pyridinyl)-6-azabicyclo[3.2.1]oct-3-ene) were evaluated in this Example using a “hot plate” test in mice. Briefly, the compounds of Example 1 (0.03, 0.1 and 0.3 mg free base/kg) were subcutaneously administered five minutes before the hot plate test. Morphine (10 mg/kg) was subcutaneously administered at 15 minutes before the test. Each mouse was placed on a metallic hot plate maintained at 52±0.2° C. The nociceptive reaction latency, characterized by licking reflex of the forepaws or by jumping off the hot plate, was recorded. The cutoff was set to 30 seconds.
The time course of the analgesic effect of the compounds of Example 1 (0.1, 0.3 and 1.0 mg free base/kg) was also assessed using the hot plate test following oral administration. Each dose of the compounds was administered to separate groups of animals at either 5, 15, 30 or 60 minutes prior to hot plate assessment. Morphine (60 mg/kg) and vehicle were also orally administered to separate groups of animals either 5, 15, 30, or 60 minutes before the test. Each mouse was placed on a metallic hot plate maintained at 52±0.2° C. The nociceptive reaction latency, characterized by licking reflex of the forepaws or by jumping off the hot plate, was recorded. The cutoff was set to 30 seconds.

The next series deals with rats. Kind of series: Rat model of peripheral mononeuropathy (Bennett Model), paw pressure test. Format: in vivo. The note with it: for % Variation of nociceptive threshold, injured paw, vs vehicle-treated group / Nociceptive threshold, injured paw: Bennett model; for Nociceptive threshold, injured paw: paw pressure, mean ± SEM. The procedure: A rat model of peripheral mononeuropathy (Bennett Model) was also used to evaluate the antihyperalgesic properties of the compounds.
Briefly, peripheral mononeuropathy was induced by loose ligation of the sciatic nerve in anaesthetized rats (pentobarbital; 45 mg/kg by intraperitoneal route). Fourteen days later, the nociceptive threshold was evaluated using a mechanical nociceptive stimulation (paw pressure test). An increasing pressure was applied onto the hindpaw of the animal until the nociceptive reaction (vocalization or paw withdrawal) was reached. The pain threshold (grams of contact pressure) was measured in hindpaws, both ipsilateral (injured side) and contralateral (non-injured side) to the site of sciatic ligation injury, at 10 minutes after the oral treatment for the compounds (1 mg/kg) and 60 minutes after dosing for morphine (60 mg/kg) and vehicle.
The results were expressed as a) the nociceptive threshold (mean±SEM) in grams of contact pressure for the injured paw and for the non-injured paw in the vehicle-treated group, and b) the percentage of variation of the nociceptive threshold calculated from the mean value of the vehicle-treated group.

Where [1] appears, read: hot plate, 15 minutes after dosing.
Where [2] appears, read: 60 mg/kg oral, 60 minutes after dosing.
Where [3] appears, read: 1 mg/kg oral, 10 minutes after treatment.

In turn, `C1=C(c2cccnc2)C2CNCC1C2.Cl.Cl` (stereo not drawn) returned a melting point of 192 to 195 °C.
Consider `CN1CC[C@]23c4c5ccc(O)c4O[C@H]2[C@@H](O)C=C[C@H]3[C@H]1C5` [Morphine, reference compound], for which, in the series with mice (10 mg/kg subcutaneous, 15 minutes before the test), the “Reaction Latency” value stood at 29.4 ± 0.5 s. Further, the “% variation of reaction latency” value in the series with mice (hot plate, 10 mg/kg subcutaneous, 15 minutes before the test) came out at 163%. Also, the “increase of nociceptive reaction latency vs vehicle-control” value in the series with mice (setting [1]) turned out to be 69%; with mice (hot plate, 30 minutes after dosing), 47%; in the series on mice (hot plate, 60 minutes after dosing) it was 37%. The “% Variation of nociceptive threshold, injured paw, vs vehicle-treated group” value in the series with rats (setting [2]) worked out at 144%. Also, the “Nociceptive threshold, injured paw” value in the series with rats (setting [2]) is recorded as 268.0 ± 18.9 g.
`C1=C(c2cccnc2)CC2CNCC1C2.Cl.Cl` (stereo not drawn): the melting point is 219 to 221 °C.
As for “3-(3-pyridinyl)-6-azabicyclo[3.2.1]oct-2-ene dihydrochloride and 3-(3-pyridinyl)-6-azabicyclo[3.2.1]oct-3-ene dihydrochloride [Example 1]”, the “Reaction Latency” value was 19.3 ± 2.8 s in the series with mice (0.03 mg free base/kg subcutaneous, five minutes before the test); 18.8 ± 2.2 s in the series on mice (0.1 mg free base/kg subcutaneous, five minutes before the test); 28.2 ± 1.8 s in the series on mice (0.3 mg free base/kg subcutaneous, five minutes before the test). In addition, the “% variation of reaction latency” value with mice (hot plate, 0.03 mg/kg subcutaneous, five minutes before the test) was determined as 72%; in the series with mice (hot plate, 0.1 mg/kg subcutaneous, five minutes before the test) it was 68%; in the series on mice (hot plate, 0.3 mg/kg subcutaneous, five minutes before the test), 152%. Further, the “increase of nociceptive reaction latency vs vehicle controls” value worked out at 82% in the series on mice (hot plate, 5 minutes after dosing) and 97% in the series with mice (setting [1]). Moreover, in the series on mice (hot plate, lower oral doses (0.1 and 0.3 mg free base/kg), data not shown), the “effect on nociceptive threshold vs vehicle-treated group” value is given as “failed to modify the nociceptive threshold”. Further, in the series with rats (1 mg/kg oral), the “behavioral side-effects following dosing” value was “No behavioral side-effects were observed”. Also, the “% Variation of nociceptive threshold, injured paw, vs vehicle-treated group” value in the series with rats (setting [3]) is recorded as 20%. In addition, the “Nociceptive threshold, injured paw” value with rats (setting [3]) was found to be 132.0 ± 9.0 g.
